The record followed here is patent publication US20110256121A1, “METHODS AND KITS FOR DIAGNOSING OR MONITORING AUTOIMMUNE AND CHRONIC INFLAMMATORY DISEASES” (THE REGENTS OF THE UNIVERSITY OF MICHIGAN, priority 2008, published 2011).

In one assay the target is T1, KIR3DL1 (Homo sapiens, UniProt P43629).
T1 construct: endogenous in cells; host or cells: primary T cells of healthy donors, PHA-stimulated and 5-azaC treated, with autologous monocytes/macrophages
The assay is described as follows: Macrophage killing assay with 5-azaC treated T cells, 51Cr release. Format: cell-based. As to conditions: 18 hrs.

The test system of the next assay is KIR2DL4 promoter. Briefly: KIR2DL4 promoter methylation, bisulfite sequencing and MS-PCR. Format: cell-based, human. The procedure:
(§1) Bisulfite conversion and DNA sequencing. Genomic DNA was isolated from T cells using FlexiGene DNA Kits (QIAGEN) then treated with sodium bisulfite as described (15). HotStar Taq (QIAGEN) was used for amplification with the following conditions: initial incubation 95° C. 15 min, then 45 cycles 95° C. 30 s, 52° C. 30 s and 72° C. 30 s. PCR products were purified using QIAEXII Gel Extraction Kits (QIAGEN), and cloned using the pGEM-T Easy Vector System (Promega, Madison, Wis.). 10 cloned fragments were sequenced for each sample by the University of Michigan Sequencing Core.
(§2) Real-time quantitative methylation specific PCR (MSP). Three real-time MSP assays were developed for detection and quantitation of each KIR gene: one specific for the bisulfite-converted methylated sequence, one for the bisulfite-converted unmethylated sequence, and a loading control comprising primers to an adjacent bisulfite-converted sequence lacking CG pairs. MSP reactions were performed using QuantiTect SYBR Green PCR kits (QIAGEN) according to the manufacture's protocol using […] of each primer, 100 ng converted DNA and the Rotor-Gene 3000. […] Levels of amplified methylated and unmethylated fragments were standardized to the control fragment, and the methylation index calculated as […]

A further assay has as its system KIR2DL2 promoter. The assay is described as follows: KIR2DL2 promoter methylation, bisulfite sequencing and MS-PCR. Format: cell-based, human. The procedure:
as §1, §2

Another assay concerns KIR2DL2. Briefly: KIR2DL2 expression on T cells by flow cytometry. Format: cell-based, human. Here is the method: T cell purification and culture. Peripheral blood mononuclear cells (PBMC) were isolated from healthy donors by density gradient centrifugation, stimulated for 18 hours with 1 μg/mlphytohemagglutinin (PHA) (Murex, Norcross, Ga.), then treated or not with 5 μm 5-azacytidine (5-azaC, Sigma, St. Louis, Mo.) for 72 hours as described (6). Total T cells, CD4^+ T cells or CD8′ T cells then were purified using the pan T cell isolation kit II or the CD4^+ and CD8^+ T cell isolation kit II from Miltenyi (Auburn, Calif.). T cells were typically >94% CD3^+ by flow cytometry. Jurkat cells (E6-1) were maintained in culture as described (11). This protocol was approved by the University of Michigan Institutional Review Board.
Flow Cytometric Analysis. The following monoclonal antibodies were used: CYC-anti-CD3, FITC-anti-CD8, CYC-anti-CD4, FITC-anti-CD28, CYC-mouse IgG1 and FITC-mouse-IgG1 (all from BD PharMingen, San Diego, Calif.). Anti-CD158b1/b2, j-PE (GL183, reactive with KIR 2DL2/2DL3/2DS2) was obtained from Beckman Coulter Immunotech (Buckinghamshire, UK), anti-CD158d-PE (anti-KIR2DL4) from R&D Systems (Minneapolis, Minn.), and PE-mouse-IgG2A from Abcam (Cambridge Mass.). Cell staining and fixation were performed as described (2; 6), and cells analyzed using a FACSCalibur flow cytometer (BD Biosciences, Franklin Lakes, N.J.).
Confirmation at the protein and mRNA levels. The effect of 5-azaC on KIR2DL2 and KIR2DL4 was confirmed in CD4+ and CD8+ T cells at the protein and mRNA levels. […] 5-azaC induces KIR2DL2 expression on both subsets, but a greater increase is seen on the CD8+ subset. FIG. 25b summarizes the effect of 5-azaC on KIR2DL2 expression in CD4+ and CD8+ T cells from healthy subjects. […] Since KIR is primarily expressed on CD28− T cells (24), KIR2DL2 expression was compared on CD28+ and CD28− T cells with and without 5-azaC treatment. KIR2DL2 expression increased on the CD28+ subset relative to untreated cells (1.9±0.2% vs 0.1±0.1%, 5-azaC treated vs untreated, n=3, p<0.001), but not on the CD28− subset (0.27±0.13% vs 0.30±0.18%, treated vs untreated, n=3).

[1] abbreviates: CD4+ and CD8+ cells, 5-azaC treated vs untreated.

T1 sequence (P43629 22-444): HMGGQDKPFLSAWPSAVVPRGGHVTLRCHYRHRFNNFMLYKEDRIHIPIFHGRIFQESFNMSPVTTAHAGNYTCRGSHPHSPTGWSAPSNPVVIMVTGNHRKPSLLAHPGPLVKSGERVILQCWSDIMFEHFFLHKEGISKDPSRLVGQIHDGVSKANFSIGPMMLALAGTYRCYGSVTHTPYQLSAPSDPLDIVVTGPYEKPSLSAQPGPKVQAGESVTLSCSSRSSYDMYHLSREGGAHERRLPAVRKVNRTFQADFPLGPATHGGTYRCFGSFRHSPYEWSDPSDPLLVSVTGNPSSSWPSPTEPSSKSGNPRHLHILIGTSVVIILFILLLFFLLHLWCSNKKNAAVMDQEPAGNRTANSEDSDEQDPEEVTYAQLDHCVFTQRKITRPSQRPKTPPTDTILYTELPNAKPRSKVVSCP

Consider `Nc1ncn([C@@H]2O[C@H](CO)[C@@H](O)[C@H]2O)c(=O)n1` [5-azaC, 5-azacytidine], for which the “killing of autologous Mo by demethylated (5-azaC treated) T cells” value on KIR3DL1 was “spontaneously kill autologous Mo”. Also, in the assay with KIR2DL4 promoter (setting [1]), the “KIR2DL4 promoter methylation pattern, bisulfite sequencing” value was “generalized demethylation in the treated cells”. In addition, the “KIR2DL4 promoter methylation index, MS-PCR” value in the assay on KIR2DL4 promoter (CD4+ and CD8+ subsets, p<0.001) is “demethylates these regions in all 5 subjects”. Also, in the assay with KIR2DL2 promoter (setting [1]), the “KIR2DL2 promoter methylation pattern, bisulfite sequencing” value was “generalized demethylation throughout the region”. In addition, the “KIR2DL2 promoter methylation index, MS-PCR” value in the assay on KIR2DL2 promoter (CD4+ and CD8+ subsets, p<0.001) is reported as “demethylates these regions in all 5 subjects”. Further, the “KIR2DL2 expression on CD4+ and CD8+ T cells” value in the assay with KIR2DL2 (5-azaC 72 h, p<0.001 for each subset) is recorded as “increases KIR2DL2 expression on both”. In the assay on KIR2DL2 (5-azaC treated T cells), the “CD4 or CD8 expression” value was “no significant effect”. Besides, in the assay on KIR2DL2 (5-azaC treated, untreated 0.1±0.1%, n=3, p<0.001), the “KIR2DL2 expression on the CD28+ subset” value was determined as 1.9±0.2%. For the same compound, the “KIR2DL2 expression on the CD28− subset” value in the assay on KIR2DL2 (5-azaC treated, untreated 0.30±0.18%, n=3) was determined as 0.27±0.13%.
